From PubChem BioAssay (NCI)
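Results reflect a 48-hour exposure of cells in 96-well plates to compound at five concentrations. GI50 marks 50% less growth. TGI: total growth inhibition.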

Tests used:
Experiment in all cases: inhibition of tumour cell growth, NCI panel, 48 h
UACC-62 melanoma = tested on: UACC-62 melanoma
SNB-75 CNS = tested on: SNB-75 CNS
SF-539 CNS = tested on: SF-539 CNS
HCC-2998 colon = tested on: HCC-2998 colon
K-562 leukemia = tested on: K-562 leukemia
SF-268 CNS = tested on: SF-268 CNS
T-47D breast = tested on: T-47D breast
OVCAR-3 ovarian = tested on: OVCAR-3 ovarian
NCI/ADR-RES ovarian = tested on: NCI/ADR-RES ovarian
NCI-H522 lung = tested on: NCI-H522 lung
A498 renal = tested on: A498 renal
SW-620 colon = tested on: SW-620 colon
LOX IMVI melanoma = tested on: LOX IMVI melanoma
NCI-H23 lung = tested on: NCI-H23 lung
MDA-N = tested on: MDA-N
HOP-62 NSCLC = tested on: HOP-62 NSCLC
A549 NSCLC = tested on: A549 NSCLC
HOP-92 NSCLC = tested on: HOP-92 NSCLC
IGROV1 ovarian = tested on: IGROV1 ovarian
MALME-3M melanoma = tested on: MALME-3M melanoma
NCI-H460 lung = tested on: NCI-H460 lung
UACC-257 melanoma = tested on: UACC-257 melanoma
SK-MEL-28 melanoma = tested on: SK-MEL-28 melanoma
COLO 205 colon = tested on: COLO 205 colon
OVCAR-8 ovarian = tested on: OVCAR-8 ovarian
OVCAR-4 ovarian = tested on: OVCAR-4 ovarian
MDA-MB-435 = tested on: MDA-MB-435
SNB-19 CNS = tested on: SNB-19 CNS
HCT-15 colon = tested on: HCT-15 colon
HCT-116 colon = tested on: HCT-116 colon
HS 578T breast = tested on: HS 578T breast
NCI-H226 lung = tested on: NCI-H226 lung
CAKI-1 renal = tested on: CAKI-1 renal
SF-295 CNS = tested on: SF-295 CNS
RPMI-8226 leukemia = tested on: RPMI-8226 leukemia
MDA-MB-231 breast = tested on: MDA-MB-231 breast
ACHN renal = tested on: ACHN renal
KM12 colon = tested on: KM12 colon
MOLT-4 leukemia = tested on: MOLT-4 leukemia
HT29 colon = tested on: HT29 colon
OVCAR-5 ovarian = tested on: OVCAR-5 ovarian
786-0 renal = tested on: 786-0 renal
EKVX NSCLC = tested on: EKVX NSCLC
RXF 393 renal = tested on: RXF 393 renal
U251 CNS = tested on: U251 CNS
BT-549 breast = tested on: BT-549 breast
CCRF-CEM leukemia = tested on: CCRF-CEM leukemia
M14 melanoma = tested on: M14 melanoma
MCF7 breast = tested on: MCF7 breast
TK-10 renal = tested on: TK-10 renal
PC-3 prostate = tested on: PC-3 prostate
SK-OV-3 ovarian = tested on: SK-OV-3 ovarian
SK-MEL-2 melanoma = tested on: SK-MEL-2 melanoma
HL-60(TB) leukemia = tested on: HL-60(TB) leukemia
DU-145 prostate = tested on: DU-145 prostate
SN12C renal = tested on: SN12C renal

O=C(c1ccc(Cl)c(Cl)c1)N1CCN(C(=O)c2ccc(Cl)c(Cl)c2)C1=S showed a GI50 (UACC-62 melanoma) of 18.1 µM, a TGI (UACC-62 melanoma) of 34.4 µM and a GI50 (SNB-75 CNS) of 18.9 µM. It also gave a TGI (SNB-75 CNS) of 36.4 µM, a GI50 (SF-539 CNS) of 15.1 µM and a TGI (SF-539 CNS) of 29.9 µM. The GI50 (HCC-2998 colon) was 19.9 µM, the TGI (HCC-2998 colon) was 42.9 µM and the GI50 (K-562 leukemia) was 16.3 µM. For the same molecule, the TGI (K-562 leukemia) was 60 µM, the GI50 (SF-268 CNS) was 16.8 µM and the TGI (SF-268 CNS) was 47.9 µM. The GI50 (T-47D breast) was 17.5 µM, the TGI (T-47D breast) was 73.6 µM and the GI50 (OVCAR-3 ovarian) was 17.1 µM. For the same molecule, the TGI (OVCAR-3 ovarian) was 35.2 µM, the GI50 (NCI/ADR-RES ovarian) was 34.4 µM and the TGI (NCI/ADR-RES ovarian) was > 100 µM. It also gave a GI50 (NCI-H522 lung) of 6.14 µM, a TGI (NCI-H522 lung) of 25 µM and a GI50 (A498 renal) of 20.2 µM. The TGI (A498 renal) was 36 µM, the GI50 (SW-620 colon) was 21.3 µM and the TGI (SW-620 colon) was 52.1 µM. It also gave a GI50 (LOX IMVI melanoma) of 7.63 µM, a TGI (LOX IMVI melanoma) of 24.2 µM and a GI50 (NCI-H23 lung) of 22 µM. The TGI (NCI-H23 lung) was 43 µM, the GI50 (MDA-N) was 18.3 µM and the TGI (MDA-N) was 38.4 µM. The GI50 (HOP-62 NSCLC) was 17.6 µM, the TGI (HOP-62 NSCLC) was 42.8 µM and the GI50 (A549 NSCLC) was 27.8 µM. It also gave a TGI (A549 NSCLC) of 68.9 µM, a GI50 (HOP-92 NSCLC) of 20 µM and a TGI (HOP-92 NSCLC) of 34.2 µM. For the same molecule, the GI50 (IGROV1 ovarian) was 19.7 µM, the TGI (IGROV1 ovarian) was 36.3 µM and the GI50 (MALME-3M melanoma) was 14.9 µM. For the same molecule, the TGI (MALME-3M melanoma) was 30.6 µM, the GI50 (NCI-H460 lung) was 22 µM and the TGI (NCI-H460 lung) was 49.4 µM. It also gave a GI50 (UACC-257 melanoma) of 17.3 µM, a TGI (UACC-257 melanoma) of 35.6 µM and a GI50 (SK-MEL-28 melanoma) of 30.6 µM. For the same molecule, the TGI (SK-MEL-28 melanoma) was 69.8 µM, the GI50 (COLO 205 colon) was 17.8 µM and the TGI (COLO 205 colon) was 33.6 µM. For the same molecule, the GI50 (OVCAR-8 ovarian) was 19 µM, the TGI (OVCAR-8 ovarian) was 34.1 µM and the GI50 (OVCAR-4 ovarian) was 16.8 µM. For the same molecule, the TGI (OVCAR-4 ovarian) was 31.4 µM, the GI50 (MDA-MB-435) was 15.4 µM and the TGI (MDA-MB-435) was 31.3 µM. The GI50 (SNB-19 CNS) was 21.4 µM, the TGI (SNB-19 CNS) was 40.7 µM and the GI50 (HCT-15 colon) was 19.6 µM. For the same molecule, the TGI (HCT-15 colon) was 43.7 µM, the GI50 (HCT-116 colon) was 18.1 µM and the TGI (HCT-116 colon) was 32.8 µM. The GI50 (HS 578T breast) was 29.1 µM, the TGI (HS 578T breast) was > 100 µM and the GI50 (NCI-H226 lung) was 19 µM. The TGI (NCI-H226 lung) was 37.4 µM, the GI50 (CAKI-1 renal) was 14 µM and the TGI (CAKI-1 renal) was 27.1 µM. The GI50 (SF-295 CNS) was 18.5 µM, the TGI (SF-295 CNS) was 39.7 µM and the TGI (RPMI-8226 leukemia) was 5.6 µM. For the same molecule, the GI50 (MDA-MB-231 breast) was 18.8 µM, the TGI (MDA-MB-231 breast) was 33.3 µM and the GI50 (ACHN renal) was 19.2 µM. For the same molecule, the TGI (ACHN renal) was 34.4 µM, the GI50 (KM12 colon) was 16.1 µM and the TGI (KM12 colon) was 33.1 µM. It also gave a GI50 (MOLT-4 leukemia) of 15.7 µM, a TGI (MOLT-4 leukemia) of 36.3 µM and a GI50 (HT29 colon) of 24.2 µM. It also gave a TGI (HT29 colon) of 53 µM, a GI50 (OVCAR-5 ovarian) of 24.3 µM and a TGI (OVCAR-5 ovarian) of 51.3 µM. The GI50 (786-0 renal) was 7.16 µM, the TGI (786-0 renal) was 20.5 µM and the GI50 (EKVX NSCLC) was 20.8 µM. For the same molecule, the TGI (EKVX NSCLC) was 38.4 µM, the GI50 (RXF 393 renal) was 17.8 µM and the TGI (RXF 393 renal) was 35.8 µM. For the same molecule, the GI50 (U251 CNS) was 16.4 µM, the TGI (U251 CNS) was 29.9 µM and the GI50 (BT-549 breast) was 23.6 µM. For the same molecule, the TGI (BT-549 breast) was 48 µM, the GI50 (CCRF-CEM leukemia) was 4.47 µM and the TGI (CCRF-CEM leukemia) was 18.7 µM. For the same molecule, the GI50 (M14 melanoma) was 19.6 µM, the TGI (M14 melanoma) was 37.9 µM and the GI50 (MCF7 breast) was 5.57 µM. It also gave a TGI (MCF7 breast) of 36.4 µM, a GI50 (TK-10 renal) of 18.5 µM and a TGI (TK-10 renal) of 36.5 µM. The GI50 (PC-3 prostate) was 16.7 µM, the TGI (PC-3 prostate) was 31.7 µM and the GI50 (SK-OV-3 ovarian) was 18.2 µM. It also gave a TGI (SK-OV-3 ovarian) of 33.9 µM, a GI50 (SK-MEL-2 melanoma) of 18.4 µM and a TGI (SK-MEL-2 melanoma) of 33.9 µM. It also gave a GI50 (HL-60(TB) leukemia) of 12.7 µM, a TGI (HL-60(TB) leukemia) of 31.3 µM and a GI50 (DU-145 prostate) of 14.7 µM. For the same molecule, the TGI (DU-145 prostate) was 29 µM, the GI50 (SN12C renal) was 18.3 µM and the TGI (SN12C renal) was 43.9 µM.
